Where two headings read alike, the source gives them in different places. Some results are limits rather than exact numbers.

Series [1] concerns A/H3N2 Brisbane. Briefly: Antiviral assay in MDCK cells, viral neuraminidase (MUNANA) readout, A/H3N2 Brisbane. The following applies: viral NA activity. In kind it is cell-based, influenza A.
Series [2] has as its system A/H5N1/Duck_MN. Briefly: microbe, parasite or virus in culture. The following applies: read-out: A/H5N1/Duck_MN EC50. It is filed as cell-based, influenza virus.
The test system of series [3] is A/H5N1/Gull_PA. Briefly: microbe, parasite or virus in culture. In kind it is cell-based, influenza virus. The note with it: read-out: A/H5N1/Gull_PA EC50.
Series [4] concerns A/H1N1/WSN. Briefly: Antiviral assay in MDCK cells, viral neuraminidase (MUNANA) readout, A/H1N1/WSN. In kind it is cell-based, influenza A. The note with it: MOI 0.001, 48 hrs post infection, viral NA activity.
The subject of series [5] is A/H1N1/Solomon Islands. Briefly: Antiviral assay in MDCK cells, viral neuraminidase (MUNANA) readout, A/H1N1/Solomon Islands. In kind it is cell-based, influenza A. The note with it: viral NA activity.
The subject of series [6] is A/H5N1/Duck_PA. In words: microbe, parasite or virus in culture. It is filed as cell-based, influenza virus. The following applies: read-out: A/H5N1/Duck_PA EC50.
Series [7] is described as follows: Mouse Liver Microsomal Stability. The following applies: mouse liver microsomes. In general terms: Microsomes from liver hold many membrane-bound enzymes, among them those of drug oxidation.
Series [8] can be described thus: Human Liver Microsomal Stability. The following applies: human liver microsomes.
The mark [9] stands for this setting: MOI 0.001, 48 hrs post infection.
[10] abbreviates: Influenza A virus, H3N2, MOI 0.001, 48 hrs post infection.
Setting [11] is: Influenza A virus, H5N1, MDCK, 48 h.
[12] abbreviates: Influenza A virus, H1N1, MOI 0.001, 48 hrs post infection.

In the case of `COc1ccccc1-c1noc(C)c1C(=O)N1CCN(c2ccc([N+](=O)[O-])cc2Cl)CC1` [Example 18], the EC50 in series [1] (setting [9]) was less than 10 µM; in series [2], less than 1 µM; in series [3], less than 0.1 µM; in series [4], less than 0.1 µM; in series [5] (setting [9]) it was less than 1 µM; in series [6], less than 1 µM.
As for `COc1ccc(-c2noc(C)c2C(=O)N2CCN(c3ccc([N+](=O)[O-])cc3Cl)CC2)c(Cl)c1` [Example 31], the EC50 in series [1] (setting [9]) was greater than 10 µM; in series [2] it was less than 1 µM; in series [3], less than 0.1 µM; in series [4], less than 0.1 µM; in series [5] (setting [9]), less than 1 µM; in series [6], less than 1 µM.
For `Cc1onc(-c2cccnc2Cl)c1C(=O)N1CCN(c2ccc([N+](=O)[O-])cc2Cl)CC1` [Example 61], the EC50 in series [1] (setting [9]) was greater than 10 µM; in series [2], less than 1 µM; in series [3], less than 1 µM; in series [4] it was less than 0.1 µM; in series [5] (setting [9]), less than 10 µM; in series [6], less than 1 µM. Also, the “Mouse Liver Microsomal Stability (% Remaining after 10 minutes)” value in series [7] was 18%. For the same compound, the “Human Liver Microsomal Stability (% Remaining after 10 minutes)” value in series [8] is 50%.
Take `COc1ccc2ccccc2c1-c1noc(C)c1C(=O)N1CCN(c2ccc([N+](=O)[O-])cc2Cl)CC1` [Example 63]: the EC50 in series [1] (setting [9]) was greater than 10 µM; in series [2], less than 1 µM; in series [3], less than 0.1 µM; in series [4] it was less than 0.1 µM; in series [5] (setting [9]) it was less than 1 µM; in series [6], less than 1 µM.
On to `Cc1[nH]nc(-c2ccccc2Cl)c1C(=O)N1CCN(c2ccc([N+](=O)[O-])cc2Cl)CC1` [Example 72], for which the EC50 was greater than 10 µM in series [1] (setting [9]); less than 10 µM in series [2]; less than 1 µM in series [3]; less than 1 µM in series [4]; greater than 10 µM in series [5] (setting [9]); less than 10 µM in series [6]. For the same compound, the “Mouse Liver Microsomal Stability (% Remaining after 10 minutes)” value in series [7] is 61%. The “Human Liver Microsomal Stability (% Remaining after 10 minutes)” value in series [8] was 78%.
With `Cc1c[nH]c(-c2ccccc2Cl)c1C(=O)N1CCN(c2ccc([N+](=O)[O-])cc2Cl)CC1` [Example 75, (4-(2-chloro-4-nitrophenyl)piperazin-1-yl)(2-(2-chlorophenyl)-4-methyl-1H-pyrrol-3-yl)methanone], the EC50 in series [1] (setting [10]) is greater than 10 µM; in series [2] (setting [11]), less than 1 µM; in series [3] (setting [11]), less than 0.1 µM; in series [4] (Influenza A virus), less than 0.1 µM; in series [5] (setting [12]) it was less than 10 µM; in series [6] (setting [11]), less than 1 µM.
`Cc1cnn(-c2ccccc2Cl)c1C(=O)N1CCN(c2ccc([N+](=O)[O-])cc2Cl)CC1` [Example 77]: the EC50 is greater than 10 µM in series [1] (setting [9]); less than 10 µM in series [2]; less than 1 µM in series [3]; less than 1 µM in series [4]; greater than 10 µM in series [5] (setting [9]); less than 10 µM in series [6].
As to `COc1ccccc1-c1n[nH]c(C)c1C(=O)N1CCN(c2ccc([N+](=O)[O-])cc2Cl)CC1` [Example 80], the EC50 in series [1] (setting [9]) was greater than 10 µM; in series [2], less than 10 µM; in series [3], less than 1 µM; in series [4] it was less than 10 µM; in series [5] (setting [9]) it was less than 10 µM; in series [6], less than 10 µM. Further, the “Mouse Liver Microsomal Stability (% Remaining after 10 minutes)” value in series [7] came to 65%. The “Human Liver Microsomal Stability (% Remaining after 10 minutes)” value in series [8] is reported as 72%.
Take `COc1ccccc1-c1nnn(C)c1C(=O)N1CCN(c2ccc([N+](=O)[O-])cc2Cl)CC1` [Example 81]: the EC50 was greater than 10 µM in series [1] (setting [9]); less than 1 µM in series [2]; less than 0.1 µM in series [3]; less than 0.1 µM in series [4]; less than 10 µM in series [5] (setting [9]); less than 1 µM in series [6]. For the same compound, the “Mouse Liver Microsomal Stability (% Remaining after 10 minutes)” value in series [7] is 45%. The “Human Liver Microsomal Stability (% Remaining after 10 minutes)” value in series [8] stood at 73%.
In the case of `COc1ccccc1-c1ncn(C)c1C(=O)N1CCN(c2ccc([N+](=O)[O-])cc2Cl)CC1` [Example 82], the EC50 in series [1] (setting [9]) is greater than 10 µM; in series [2] it was less than 10 µM; in series [3], less than 1 µM; in series [4], less than 1 µM; in series [5] (setting [9]), greater than 10 µM; in series [6] it was less than 10 µM. The “Mouse Liver Microsomal Stability (% Remaining after 10 minutes)” value in series [7] stood at 43%. The “Human Liver Microsomal Stability (% Remaining after 10 minutes)” value in series [8] stood at 45%.
For the compound `COc1ccccc1-c1nnn(C)c1C(=O)N1CCN(c2ncc([N+](=O)[O-])cc2Cl)CC1` [Example 86], the EC50 in series [1] (setting [9]) was greater than 10 µM; in series [2], less than 10 µM; in series [3] it was less than 1 µM; in series [4] it was less than 1 µM; in series [5] (setting [9]), less than 10 µM; in series [6] it was less than 10 µM.
In the case of `Cc1nnn(-c2ccccc2Cl)c1C(=O)N1CCN(c2ccc([N+](=O)[O-])cc2Cl)CC1` [Example 88], the EC50 in series [1] (setting [9]) is greater than 10 µM; in series [2], less than 10 µM; in series [3], less than 1 µM; in series [4] it was less than 1 µM; in series [5] (setting [9]) it was less than 10 µM; in series [6], less than 10 µM. The “Mouse Liver Microsomal Stability (% Remaining after 10 minutes)” value in series [7] stood at 23%. Further, the “Human Liver Microsomal Stability (% Remaining after 10 minutes)” value in series [8] is given as 47%.
Turning to `COc1ccccc1-c1noc(C)c1C(=O)N1CCN(c2ncc(Cl)cc2Br)CC1` [Example 129], the EC50 was less than 10 µM in series [1] (setting [9]); less than 10 µM in series [2]; less than 1 µM in series [3]; less than 1 µM in series [4]; less than 10 µM in series [5] (setting [9]); less than 10 µM in series [6].
For the compound `Cc1cc(Br)cnc1N1CCN(C(=O)c2c(-c3ccccc3Cl)noc2C)CC1` [Example 132, (4-(5-bromo-3-methylpyridin-2-yl)piperazin-1-yl)(3-(2-chlorophenyl)-5-methylisoxazol-4-yl)methanone], the EC50 in series [1] (setting [10]) was greater than 10 µM; in series [2] (setting [11]) it was greater than 10 µM; in series [3] (setting [11]), greater than 10 µM; in series [4] (Influenza A virus) it was less than 1 µM; in series [5] (setting [12]), less than 10 µM; in series [6] (setting [11]) it was greater than 10 µM.
Regarding `Cc1c[nH]c(-c2ccccc2Cl)c1C(=O)N1CCN(c2ncc(Cl)cc2Cl)CC1` [Example 133], the EC50 was less than 10 µM in series [1] (setting [9]); greater than 10 µM in series [2]; less than 10 µM in series [3]; less than 1 µM in series [4]; less than 10 µM in series [5] (setting [9]); greater than 10 µM in series [6].
In the case of `COc1ccc(NC(C)=O)cc1-c1noc(C)c1C(=O)N1CCN(c2ccc([N+](=O)[O-])cc2Cl)CC1` [Example 165], the EC50 was greater than 10 µM in series [1] (setting [9]); less than 10 µM in series [2]; less than 1 µM in series [3]; less than 1 µM in series [4]; less than 1 µM in series [5] (setting [9]); less than 10 µM in series [6].

Source of the values: patent US20120245176A1, “NOVEL […] WITH S[…] AS BROAD-[…] INFLUENZA ANTIVIRALS” (priority 2010, published 2012).
